Measurements: US10947188B2, “Small molecule ferroptosis inducers” (THE TRUSTEES OF COLUMBIA UNIVERSITY IN THE CITY OF NEW YORK, priority 2016, dated 2021)

Key:
[1] = test system: BJeLR; test: Modulatory profiling: Alamar Blue viability, lethal compound cotreated with death modulator (EC50, AUC); assay type: cell-based, human; parameters: AUC, modulator BJ.Gd3+ / AUC, modulator BJ.LNAME / AUC, modulator BJ.Lmin / AUC, modulator BJ.3MA / AUC, modulator BJ.ALLN / AUC, modulator BJ.Boc D / AUC, modulator BJ.CHX / AUC, modulator BJ.Co2+ / AUC, modulator BJ.Nec-1 / AUC, modulator BJ.Pepstatin / AUC, modulator BJ.TLCK / AUC, modulator BJ.atoc / AUC, modulator BJ.trolox / AUC, modulator BJ.zVAD: unit not given beside the values; conditions: BJeLR cells, modulatory profile value (AUC); for AUC, modulator BJ.3MA: lethal compound cotreated with modulator 3MA; for AUC, modulator BJ.ALLN: lethal compound cotreated with modulator ALLN; for AUC, modulator BJ.Boc D: lethal compound cotreated with modulator Boc D; for AUC, modulator BJ.CHX: lethal compound cotreated with modulator CHX; for AUC, modulator BJ.Co2+: lethal compound cotreated with modulator Co2+; for AUC, modulator BJ.DPQ: lethal compound cotreated with modulator DPQ; for AUC, modulator BJ.Gd3+: lethal compound cotreated with modulator Gd3+; for AUC, modulator BJ.LNAME: lethal compound cotreated with modulator LNAME; for AUC, modulator BJ.Lmin/NAD+: lethal compound cotreated with modulator Lmin/NAD+; for AUC, modulator BJ.Lmin: lethal compound cotreated with modulator Lmin; for AUC, modulator BJ.NAD+: lethal compound cotreated with modulator NAD+; for AUC, modulator BJ.NMMA: lethal compound cotreated with modulator NMMA; for AUC, modulator BJ.Nec-1: lethal compound cotreated with modulator Nec-1; for AUC, modulator BJ.Pepstatin: lethal compound cotreated with modulator Pepstatin; for AUC, modulator BJ.TLCK: lethal compound cotreated with modulator TLCK; for AUC, modulator BJ.atoc: lethal compound cotreated with modulator atoc; for AUC, modulator BJ.trolox: lethal compound cotreated with modulator trolox; for AUC, modulator BJ.zVAD: lethal compound cotreated with modulator zVAD; for AUC, modulator BJ.3MA: reference of the scale not given here; for AUC, modulator BJ.ALLN: reference of the scale not given here; for AUC, modulator BJ.Boc D: reference of the scale not given here; for AUC, modulator BJ.CHX: reference of the scale not given here; for AUC, modulator BJ.Co2+: reference of the scale not given here; for AUC, modulator BJ.DPQ: reference of the scale not given here; for AUC, modulator BJ.Gd3+: reference of the scale not given here; for AUC, modulator BJ.LNAME: reference of the scale not given here; for AUC, modulator BJ.NAD+: reference of the scale not given here; for AUC, modulator BJ.NMMA: reference of the scale not given here; for AUC, modulator BJ.Nec-1: reference of the scale not given here; for AUC, modulator BJ.Pepstatin: reference of the scale not given here; for AUC, modulator BJ.TLCK: reference of the scale not given here
[2] = test system: HT-1080; test: as above; assay type: cell-based; parameters: AUC, modulator HT.3MA / AUC, modulator HT.ALLN / AUC HT.ATA / AUC HT.ActD / AUC HT.BHA / AUC HT.BHT / AUC HT.BocD / AUC HT.CHX / AUC HT.Co2+ / AUC HT.DPQ / AUC HT.EGTA / AUC HT.Lmim / AUC HT.NAD+ / AUC HT.Nec-1 / AUC HT.SP600125 / AUC HT.TLCK / AUC HT.U0126: unit not given beside the values; conditions: for AUC HT.ATA: HT-1080, modulator ATA; for AUC HT.ActD: HT-1080, modulator ActD; for AUC HT.BHA: HT-1080, modulator BHA; for AUC HT.BHT: HT-1080, modulator BHT; for AUC HT.BocD: HT-1080, modulator BocD; for AUC HT.CHX: HT-1080, modulator CHX; for AUC HT.Co2+: HT-1080, modulator Co2+; for AUC HT.CspA: HT-1080, modulator CspA; for AUC HT.DPQ: HT-1080, modulator DPQ; for AUC HT.EGTA: HT-1080, modulator EGTA; for AUC HT.Gd3+: HT-1080, modulator Gd3+; for AUC HT.LNAME: HT-1080, modulator LNAME; for AUC HT.Lmim: HT-1080, modulator Lmim; for AUC HT.NAD+: HT-1080, modulator NAD+; for AUC HT.NMMA: HT-1080, modulator NMMA; for AUC HT.Nec-1: HT-1080, modulator Nec-1; for AUC HT.Pepstatin: HT-1080, modulator Pepstatin; for AUC HT.SP600125: HT-1080, modulator SP600125; for AUC HT.TLCK: HT-1080, modulator TLCK; for AUC HT.U0126: HT-1080, modulator U0126; for HT.atoc (AUC) / HT.bCarotene (AUC) / HT.deferox (AUC) / HT.digoxin (AUC) / HT.trolox (AUC) / HT.zVAD (AUC): HT-1080; for HT.atoc (AUC): modulator atoc; for HT.bCarotene (AUC): modulator bCarotene; for HT.deferox (AUC): modulator deferox; for HT.digoxin (AUC): modulator digoxin; for HT.trolox (AUC): modulator trolox; for HT.zVAD (AUC): modulator zVAD; for AUC, modulator HT.3MA / AUC, modulator HT.ALLN: HT-1080 cells, modulatory profile value (AUC); for AUC, modulator HT.3MA: lethal compound cotreated with modulator 3MA; for AUC, modulator HT.ALLN: lethal compound cotreated with modulator ALLN; for AUC HT.BHA: reference of the scale not given here; for AUC HT.EGTA: reference of the scale not given here

## O=C1c2ccccc2-c2onc3ccc(Oc4ccccc4)c1c23 [CIL6]
[1]
  AUC, modulator BJ.3MA: 0.1191
  AUC, modulator BJ.ALLN: −0.0496
  AUC, modulator BJ.Boc D: −0.05247
  AUC, modulator BJ.CHX: 0.1353
  AUC, modulator BJ.Co2+: 0.06961
  AUC, modulator BJ.DPQ: 0.01365
  AUC, modulator BJ.Gd3+: 0.006848
  AUC, modulator BJ.LNAME: −0.02637
  AUC, modulator BJ.Lmin/NAD+: −0.0638
  AUC, modulator BJ.Lmin: −0.03874
  AUC, modulator BJ.NAD+: 0.02657
  AUC, modulator BJ.NMMA: 0.006287
  AUC, modulator BJ.Nec-1: 0.01237
  AUC, modulator BJ.Pepstatin: 0.03711
  AUC, modulator BJ.TLCK: −0.01536
  AUC, modulator BJ.atoc: 0.01482
  AUC, modulator BJ.trolox: −0.006777
  AUC, modulator BJ.zVAD: −0.003192
[2]
  AUC HT.ATA: 0.007654
  AUC HT.ActD: −0.008928
  AUC HT.BHA: −0.007636
  AUC HT.BHT: −0.06114
  AUC HT.BocD: 0.076
  AUC HT.CHX: 0.161
  AUC HT.Co2+: 0.04208
  AUC HT.CspA: −0.01275
  AUC HT.DPQ: 0.04323
  AUC HT.EGTA: 0.01026
  AUC HT.Gd3+: −0.02897
  AUC HT.LNAME: 0.0157
  AUC HT.Lmim: −0.01064
  AUC HT.NAD+: 0.04899
  AUC HT.NMMA: −0.02292
  AUC HT.Nec-1: 0.01299
  AUC HT.Pepstatin: 0.0188
  AUC HT.SP600125: −0.01195
  AUC HT.TLCK: −0.00546
  AUC HT.U0126: 0.04846
  HT.atoc (AUC): 0.1204
  HT.bCarotene (AUC): −0.0173
  HT.deferox (AUC): 0.02051
  HT.digoxin (AUC): 0.009607
  HT.trolox (AUC): −0.01697
  HT.zVAD (AUC): −0.01676
  AUC, modulator HT.3MA: 0.06096
  AUC, modulator HT.ALLN: 0.04648

## COc1ccc(Nc2ccc3c(c2)=NC2(CCCCC2)[N+]=3[O-])cc1 [CIL9]
[1]
  AUC, modulator BJ.3MA: 0.0465
  AUC, modulator BJ.ALLN: −0.1202
  AUC, modulator BJ.Boc D: −0.06171
  AUC, modulator BJ.CHX: 0.03696
  AUC, modulator BJ.Co2+: −0.009162
  AUC, modulator BJ.DPQ: −0.01225
  AUC, modulator BJ.Gd3+: −0.01038
  AUC, modulator BJ.LNAME: 0.01336
  AUC, modulator BJ.Lmin/NAD+: 0.01499
  AUC, modulator BJ.Lmin: −0.03967
  AUC, modulator BJ.NAD+: 0.0007181
  AUC, modulator BJ.NMMA: −0.01541
  AUC, modulator BJ.Nec-1: 0.02689
  AUC, modulator BJ.Pepstatin: 0.0182
  AUC, modulator BJ.TLCK: −0.01752
  AUC, modulator BJ.atoc: 0.02754
  AUC, modulator BJ.trolox: 0.05397
  AUC, modulator BJ.zVAD: −0.02708
[2]
  AUC HT.ATA: −0.003144
  AUC HT.ActD: −0.064
  AUC HT.BHA: −0.04477
  AUC HT.BHT: −0.1803
  AUC HT.BocD: −0.02376
  AUC HT.CHX: 0.07227
  AUC HT.Co2+: 0.01754
  AUC HT.CspA: −0.03079
  AUC HT.DPQ: −0.003317
  AUC HT.EGTA: −0.006848
  AUC HT.Gd3+: −0.04358
  AUC HT.LNAME: 0.02124
  AUC HT.Lmim: −0.05469
  AUC HT.NAD+: 0.02617
  AUC HT.NMMA: −0.03733
  AUC HT.Nec-1: 0.02133
  AUC HT.Pepstatin: −0.002188
  AUC HT.SP600125: 0.01016
  AUC HT.TLCK: 0.005514
  AUC HT.U0126: 0.03915
  HT.atoc (AUC): 0.05157
  HT.bCarotene (AUC): −0.006502
  HT.deferox (AUC): 0.05678
  HT.digoxin (AUC): −0.01984
  HT.trolox (AUC): −0.03599
  HT.zVAD (AUC): −0.00166
  AUC, modulator HT.3MA: 0.04492
  AUC, modulator HT.ALLN: −0.02077

## COc1cccc(-n2nnnc2S(C)(=O)=O)c1 [CIL16]
[1]
  AUC, modulator BJ.3MA: 0.05064
  AUC, modulator BJ.ALLN: −0.03491
  AUC, modulator BJ.Boc D: −0.04692
  AUC, modulator BJ.CHX: 0.01221
  AUC, modulator BJ.Co2+: 0.07207
  AUC, modulator BJ.DPQ: −0.01732
  AUC, modulator BJ.Gd3+: −0.02506
  AUC, modulator BJ.LNAME: −0.01278
  AUC, modulator BJ.Lmin/NAD+: −0.05229
  AUC, modulator BJ.Lmin: −0.02238
  AUC, modulator BJ.NAD+: −0.02177
  AUC, modulator BJ.NMMA: −0.01938
  AUC, modulator BJ.Nec-1: 0.06903
  AUC, modulator BJ.Pepstatin: 0.02481
  AUC, modulator BJ.TLCK: −0.02516
  AUC, modulator BJ.atoc: −0.03351
  AUC, modulator BJ.trolox: 0.003689
  AUC, modulator BJ.zVAD: −0.006166
[2]
  AUC HT.ATA: 0.003965
  AUC HT.ActD: 0.01875
  AUC HT.BHA: −0.05937
  AUC HT.BHT: −0.1721
  AUC HT.BocD: 0.1414
  AUC HT.CHX: 0.08543
  AUC HT.Co2+: 0.155
  AUC HT.CspA: 0.008389
  AUC HT.DPQ: −0.02205
  AUC HT.EGTA: −0.0002723
  AUC HT.Gd3+: −0.0407
  AUC HT.LNAME: 0.01974
  AUC HT.Lmim: −0.05546
  AUC HT.NAD+: 0.05126
  AUC HT.NMMA: −0.03154
  HT.atoc (AUC): 0.1025
  HT.bCarotene (AUC): −0.01322
  HT.deferox (AUC): 0.05919
  HT.digoxin (AUC): −0.01884
  HT.trolox (AUC): −0.01524
  HT.zVAD (AUC): 0.005482
  AUC, modulator HT.3MA: 0.02993
  AUC, modulator HT.ALLN: −0.03286

## COc1nn(-c2ccccc2)c(=O)c(Cl)c1Cl [CIL23]
[1]
  AUC, modulator BJ.3MA: −0.01613
  AUC, modulator BJ.ALLN: −0.04561
  AUC, modulator BJ.Boc D: −0.01959
  AUC, modulator BJ.CHX: −0.02303
  AUC, modulator BJ.Co2+: −0.01594
  AUC, modulator BJ.DPQ: 0.004379
  AUC, modulator BJ.Gd3+: 0.03265
  AUC, modulator BJ.LNAME: −0.02129
  AUC, modulator BJ.Lmin/NAD+: 0.004125
  AUC, modulator BJ.Lmin: −0.01617
  AUC, modulator BJ.NAD+: 0.005104
  AUC, modulator BJ.NMMA: −0.01242
  AUC, modulator BJ.Nec-1: 0.03269
  AUC, modulator BJ.Pepstatin: −0.001663
  AUC, modulator BJ.TLCK: −0.007806
  AUC, modulator BJ.atoc: 0.002315
  AUC, modulator BJ.trolox: −0.02152
  AUC, modulator BJ.zVAD: 0.04691
[2]
  AUC HT.ATA: 0.01792
  AUC HT.ActD: 0.01969
  AUC HT.BHA: 0.00702
  AUC HT.BHT: −0.02762
  AUC HT.BocD: −0.01259
  AUC HT.CHX: 0.08773
  AUC HT.Co2+: 0.03316
  AUC HT.CspA: −0.02326
  AUC HT.DPQ: 0.01052
  AUC HT.EGTA: −0.01323
  AUC HT.Gd3+: −0.000221
  AUC HT.LNAME: 0.005628
  AUC HT.Lmim: 0.01608
  AUC HT.NAD+: −0.0002222
  AUC HT.NMMA: −0.001084
  HT.atoc (AUC): 0.03663
  HT.bCarotene (AUC): −0.001122
  HT.deferox (AUC): 0.1512
  HT.digoxin (AUC): 0.03673
  HT.trolox (AUC): 0.004402
  HT.zVAD (AUC): 0.02043
  AUC, modulator HT.3MA: 0.01609
  AUC, modulator HT.ALLN: 0.001521
